# Active and inactive are the calls of the source. The rule behind the calls is not given here.
# Assays:
# Mus musculus [1] = assay: Mean survival time of mice (Mus musculus) infected with Plasmodium berghei after administration of compound at the dose of 40 mg/kg; type: functional
# Mus musculus [2] = assay: Mean survival time of mice (Mus musculus) infected with Plasmodium berghei after administration of compound at the dose of 80 mg/kg; type: functional
# Mus musculus [3] = assay: Mean survival time of mice (Mus musculus) infected with Plasmodium berghei after administration of compound at the dose of 160 mg/kg; type: functional
# Mus musculus [4] = assay: Mean survival time of mice (Mus musculus) infected with Plasmodium berghei after administration of compound at the dose of 20 mg/kg; type: functional
# Mus musculus [5] = assay: In vivo antimalarial activity against Plasmodium berghei in mice (Mus musculus); Inactive; type: functional, organism-based
# Plasmodium falciparum [6] = assay: (§1) In vitro schizont maturation inhibition for chloroquine-sensitive Plasmodium falciparum FJB D9; type: functional, organism-based
# Plasmodium falciparum [7] = assay: (§2) In vitro schizont maturation inhibition for chloroquine-sensitive Plasmodium falciparum FSH 14; type: functional, organism-based
# Plasmodium falciparum [8] = assay: (§3) In vitro total parasite growth inhibition for chloroquine-sensitive Plasmodium falciparum FJB D9; type: functional, organism-based
# Plasmodium falciparum [9] = assay: (§4) In vitro total parasite growth inhibition for chloroquine-sensitive Plasmodium falciparum FSH 14; type: functional, organism-based
# Plasmodium falciparum [10] = assay: as §1; type: functional
# Plasmodium falciparum [11] = assay: as §2; type: functional
# Plasmodium falciparum [12] = assay: as §3; type: functional
# Plasmodium falciparum [13] = assay: as §4; type: functional
# Mus musculus [14] = assay: In vivo antimalarial activity against Plasmodium berghei in mice (Mus musculus); Active at 160 mg/kg; type: functional, organism-based; design: dose 160 mg/kg
# Mus musculus [15] = assay: In vivo antimalarial activity against Plasmodium berghei in mice (Mus musculus); In active; type: functional, organism-based
SMILES,Mean survival time (Mus musculus [1]) [days],Mean survival time (Mus musculus [2]) [days],Mean survival time (Mus musculus [3]) [days],Mean survival time (Mus musculus [4]) [days],Activity (Mus musculus [5]),IC50 (Plasmodium falciparum [6]) [uM well-1],IC50 (Plasmodium falciparum [7]) [uM well-1],IC50 (Plasmodium falciparum [8]) [uM well-1],IC50 (Plasmodium falciparum [9]) [uM well-1],IC90 (Plasmodium falciparum [10]) [uM well-1],IC90 (Plasmodium falciparum [11]) [uM well-1],IC90 (Plasmodium falciparum [12]) [uM well-1],IC90 (Plasmodium falciparum [13]) [uM well-1],Activity (Mus musculus [14]),Activity (Mus musculus [15])
CC(C)(C)OOCN1CCOCC1,7.6,8.8,11.4,6.8,inactive,0.058,0.064,0.15,0.16,2.6,2.9,3,2.15,,
CC(C)=CCCC(C)CCN(CCO)COOC(C)(C)C (stereo not drawn),7.3,11.2,15,6.2,,3.2,1.4,7.8,3.8,>25,>25,>25,>25,Active,
CC(C)=CCCC(C)CCN(COOC(C)(C)C)Cc1ccccc1 (stereo not drawn),6.8,10.8,12.2,5.2,,1.6,1.6,4.4,2.5,9,10,10,12,Active,
CC(C)(C)OOCN1CCCC1,7,9.8,11.8,5.4,,> 25,> 25,> 25,> 25,>25,>25,>25,>25,Active,
COC1=CC=C2[C@H]3Cc4ccc(OC)c5c4[C@@]2(CCN3COOC(C)(C)C)[C@H]1O5,40,6.8,7.2,5.2,,0.135,0.5,1.8,0.45,0.47,0.92,6.4,5,,inactive
CC(C)(C)OOCN(C1CCCCC1)C1CCCCC1,8.6,9.8,13.4,7.6,,1.5,2.1,5,5,21,>25,25,>25,Active,

# Reference: ChEMBL document CHEMBL1133927, “Antimalarial t-butylperoxyamines” (Bioorg Med Chem Lett, 2001)
